In PubChem BioAssay (NCI):
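GI50 marks 50% less growth. TGI: total growth inhibition.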

Experiments:
Assay in all cases: growth of human tumour cells (NCI), 384-well format
786-0 renal = system: 786-0 renal
A498 renal = system: A498 renal
A549 NSCLC = system: A549 NSCLC
ACHN renal = system: ACHN renal
BT-549 breast = system: BT-549 breast
CAKI-1 renal = system: CAKI-1 renal
CCRF-CEM leukemia = system: CCRF-CEM leukemia
COLO 205 colon = system: COLO 205 colon
DU-145 prostate = system: DU-145 prostate
EKVX NSCLC = system: EKVX NSCLC
HCC-2998 colon = system: HCC-2998 colon
HCT-116 colon = system: HCT-116 colon
HCT-15 colon = system: HCT-15 colon
HL-60(TB) leukemia = system: HL-60(TB) leukemia
HOP-62 NSCLC = system: HOP-62 NSCLC
HOP-92 NSCLC = system: HOP-92 NSCLC
HS 578T breast = system: HS 578T breast
HT29 colon = system: HT29 colon
IGROV1 ovarian = system: IGROV1 ovarian
K-562 leukemia = system: K-562 leukemia
KM12 colon = system: KM12 colon
LOX IMVI melanoma = system: LOX IMVI melanoma
M14 melanoma = system: M14 melanoma
MALME-3M melanoma = system: MALME-3M melanoma
MCF7 breast = system: MCF7 breast
MDA-MB-435 melanoma = system: MDA-MB-435 melanoma
MDA-MB-468 breast = system: MDA-MB-468 breast
MOLT-4 leukemia = system: MOLT-4 leukemia
NCI-H226 lung = system: NCI-H226 lung
NCI-H23 lung = system: NCI-H23 lung
NCI-H322M lung = system: NCI-H322M lung
NCI-H460 NSCLC = system: NCI-H460 NSCLC
NCI-H522 lung = system: NCI-H522 lung
NCI/ADR-RES ovarian = system: NCI/ADR-RES ovarian
OVCAR-3 ovarian = system: OVCAR-3 ovarian
OVCAR-4 ovarian = system: OVCAR-4 ovarian
OVCAR-8 ovarian = system: OVCAR-8 ovarian
PC-3 prostate = system: PC-3 prostate
RPMI-8226 leukemia = system: RPMI-8226 leukemia
RXF 393 renal = system: RXF 393 renal
SF-268 CNS = system: SF-268 CNS
SF-295 CNS = system: SF-295 CNS
SF-539 CNS = system: SF-539 CNS
SK-MEL-2 melanoma = system: SK-MEL-2 melanoma
SK-MEL-28 melanoma = system: SK-MEL-28 melanoma
SK-MEL-5 melanoma = system: SK-MEL-5 melanoma
SK-OV-3 ovarian = system: SK-OV-3 ovarian
SN12C renal = system: SN12C renal
SNB-19 CNS = system: SNB-19 CNS
SNB-75 CNS = system: SNB-75 CNS
SW-620 colon = system: SW-620 colon
TK-10 renal = system: TK-10 renal
U251 glioblastoma = system: U251 glioblastoma
UACC-257 melanoma = system: UACC-257 melanoma
UACC-62 melanoma = system: UACC-62 melanoma

Q: What does the source list for `CN(C)CCN(C)CC(C)(C)C(=O)/C=C/c1ccc(Cl)c(Cl)c1`?
A: GI50 (786-0 renal): 1460 nM; TGI (786-0 renal): 2790 nM; GI50 (A498 renal): 1450 nM; TGI (A498 renal): 2770 nM; GI50 (A549 NSCLC): 1720 nM; TGI (A549 NSCLC): 3130 nM; GI50 (ACHN renal): 1570 nM; TGI (ACHN renal): 2940 nM; GI50 (BT-549 breast): 1680 nM; TGI (BT-549 breast): 3060 nM; GI50 (CAKI-1 renal): 1080 nM; TGI (CAKI-1 renal): 2290 nM; GI50 (CCRF-CEM leukemia): 216 nM; TGI (CCRF-CEM leukemia): 479 nM; GI50 (COLO 205 colon): 1600 nM; TGI (COLO 205 colon): 2980 nM; GI50 (DU-145 prostate): 1600 nM; TGI (DU-145 prostate): 3000 nM; GI50 (EKVX NSCLC): 1650 nM; TGI (EKVX NSCLC): 3080 nM; GI50 (HCC-2998 colon): 1500 nM; TGI (HCC-2998 colon): 2840 nM; GI50 (HCT-116 colon): 1270 nM; TGI (HCT-116 colon): 2590 nM; GI50 (HCT-15 colon): 1230 nM; TGI (HCT-15 colon): 2530 nM; GI50 (HL-60(TB) leukemia): 161 nM; TGI (HL-60(TB) leukemia): 309 nM; GI50 (HOP-62 NSCLC): 1720 nM; TGI (HOP-62 NSCLC): 3100 nM; GI50 (HOP-92 NSCLC): 1090 nM; TGI (HOP-92 NSCLC): 2290 nM; GI50 (HS 578T breast): 2000 nM; TGI (HS 578T breast): 3440 nM; GI50 (HT29 colon): 1440 nM; TGI (HT29 colon): 2990 nM; GI50 (IGROV1 ovarian): 1480 nM; TGI (IGROV1 ovarian): 2810 nM; GI50 (K-562 leukemia): 1820 nM; TGI (K-562 leukemia): 3250 nM; GI50 (KM12 colon): 810 nM; TGI (KM12 colon): 2060 nM; GI50 (LOX IMVI melanoma): 1640 nM; TGI (LOX IMVI melanoma): 3020 nM; GI50 (M14 melanoma): 1690 nM; TGI (M14 melanoma): 3080 nM; GI50 (MALME-3M melanoma): 2050 nM; TGI (MALME-3M melanoma): 3490 nM; GI50 (MCF7 breast): 796 nM; TGI (MCF7 breast): 2050 nM; GI50 (MDA-MB-435 melanoma): 1360 nM; TGI (MDA-MB-435 melanoma): 2650 nM; GI50 (MDA-MB-468 breast): 510 nM; TGI (MDA-MB-468 breast): 902 nM; GI50 (MOLT-4 leukemia): 215 nM; TGI (MOLT-4 leukemia): 459 nM; GI50 (NCI-H226 lung): 1470 nM; TGI (NCI-H226 lung): 2790 nM; GI50 (NCI-H23 lung): 1470 nM; TGI (NCI-H23 lung): 2840 nM; GI50 (NCI-H322M lung): 1310 nM; TGI (NCI-H322M lung): 2600 nM; GI50 (NCI-H460 NSCLC): 1410 nM; TGI (NCI-H460 NSCLC): 2780 nM; GI50 (NCI-H522 lung): 1330 nM; TGI (NCI-H522 lung): 2620 nM; GI50 (NCI/ADR-RES ovarian): 1570 nM; TGI (NCI/ADR-RES ovarian): 2920 nM; GI50 (OVCAR-3 ovarian): 1350 nM; TGI (OVCAR-3 ovarian): 2640 nM; GI50 (OVCAR-4 ovarian): 1510 nM; TGI (OVCAR-4 ovarian): 2850 nM; GI50 (OVCAR-8 ovarian): 1300 nM; TGI (OVCAR-8 ovarian): 2590 nM; GI50 (PC-3 prostate): 1510 nM; TGI (PC-3 prostate): 2860 nM; GI50 (RPMI-8226 leukemia): 319 nM; TGI (RPMI-8226 leukemia): 667 nM; GI50 (RXF 393 renal): 1080 nM; TGI (RXF 393 renal): 2270 nM; GI50 (SF-268 CNS): 1930 nM; TGI (SF-268 CNS): 3350 nM; GI50 (SF-295 CNS): 1560 nM; TGI (SF-295 CNS): 2940 nM; GI50 (SF-539 CNS): 1340 nM; TGI (SF-539 CNS): 2630 nM; GI50 (SK-MEL-2 melanoma): 292 nM; TGI (SK-MEL-2 melanoma): 644 nM; GI50 (SK-MEL-28 melanoma): 1890 nM; TGI (SK-MEL-28 melanoma): 3310 nM; GI50 (SK-MEL-5 melanoma): 1190 nM; TGI (SK-MEL-5 melanoma): 2430 nM; GI50 (SK-OV-3 ovarian): 1280 nM; TGI (SK-OV-3 ovarian): 2550 nM; GI50 (SN12C renal): 1320 nM; TGI (SN12C renal): 2600 nM; GI50 (SNB-19 CNS): 1750 nM; TGI (SNB-19 CNS): 3170 nM; GI50 (SNB-75 CNS): 2020 nM; TGI (SNB-75 CNS): 3450 nM; GI50 (SW-620 colon): 1340 nM; TGI (SW-620 colon): 2650 nM; GI50 (TK-10 renal): 1440 nM; TGI (TK-10 renal): 2750 nM; GI50 (U251 glioblastoma): 1520 nM; TGI (U251 glioblastoma): 2870 nM; GI50 (UACC-257 melanoma): 1450 nM; TGI (UACC-257 melanoma): 2770 nM; GI50 (UACC-62 melanoma): 1410 nM; TGI (UACC-62 melanoma): 2720 nM
